We go through two compounds from ChEMBL document CHEMBL1201862, “PubChem BioAssay data set” (2004).

A short description of test [1]: Luminescence Cell-Based Dose Response to Identify Activators of 5'UTR Stem-Loop Driven Prion Protein mRNA Translation in H4-C Neuroglioblastoma Cells. [Related pubchem assays: 1829 (Project Summary), 1814 (Primary HTS)]. The format is functional.
Test [2] in a line: Luminescence Cell-Based Dose Confirmation HTS to Identify Activators of 5'UTR Stem-Loop Driven Alpha-Synuclein mRNA Translation in H4 Neuroglioblastoma Cells. [Related pubchem assays: 1829 (Project Summary), 1814 (Primary HTS)]. The test is classed as functional.
Test [3] can be described thus: insulin promoter down-regulators in MIN6 cells, imaging, high-content screening, mouse beta cells (AID 1628). The format is functional.
The nature of test [4]: Luminescence Cell-Based Dose Response HTS to Identify Activators of Luciferase Translation or Activity in H4 […] Cells. [Related pubchem assays: 1829 (Project Summary), 1814 (Primary HTS)]. The format is functional.
For test [5], the system named is BJ. Briefly: cytotoxicity toward BJ-TERT fibroblasts, dose response, cell-based, RAS-independent, luminescence (AID 1933). The format is functional. Particulars: Homo sapiens.
The nature of test [6]: cytotoxicity in MIN6 insulinoma cells, dose response, cytotoxicity control, cell-based, mouse insulinoma (AID 2122).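 Also: confirmatory high-throughput counterscreen run to flag cytotoxic compounds; mouse MIN-6 beta cells carrying an insulin promoter eGFP reporter.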 The test is classed as functional.
The test system of test [7] is BJ. In words: cells. The test is classed as functional, cell-based. Particulars: Homo sapiens.
A short description of test [8]: Luminescence Cell-Based Dose Response to Identify Activators of Luciferase Translation or Activity in H4-C Neuroglioblastoma Cells. [Related pubchem assays: 1829 (Project Summary), 1814 (Primary HTS)]. The test is classed as functional.
Test [9] can be described thus: Luminescence-based dose response cell-based high throughput screening assay for cytotoxic compounds using the IEC-6 intestinal epithelial cell line. [Related pubchem assays: 1858 (Summary AID.), 1825 (Counterscreen.), 1907 (Confirmation screen.)]. The test is classed as functional. Background: The purpose of a counterscreen is to sort out artefacts and off-target activity.

Test [10] can be described thus: Luminescence Cell-Based Dose Confirmation to Identify Activators of 5'UTR Stem-Loop Driven Alpha-Synuclein mRNA Translation in H4 Neuroglioblastoma Cells. [Related pubchem assays: 1829 (Project Summary), 1814 (Primary HTS)]. The test is classed as functional.
Test [11] has as its system BJ. Briefly: cytotoxicity toward BJ-TERT-LT-ST fibroblasts, dose response, cell-based, RAS-independent, luminescence (AID 1935).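 Also: BJ fibroblasts immortalized with TERT plus LT and ST oncogenes.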 The format is functional. Particulars: Homo sapiens.
A short description of test [12]: cytotoxicity toward DRD oncogenic fibroblasts, dose response, cell-based, non-viral oncogenic, luminescence (AID 1934). The test is classed as functional. Particulars: Homo sapiens.
Test [13] has as its system BJ. In words: cytotoxicity toward Ras-transformed BJeLR fibroblasts, dose response, cell-based, alamar blue fluorescence, cherrypicked samples (AID 2631).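 Also: confirmatory dose-response assay in RAS-dependent BJ fibroblasts engineered with TERT, LT and ST, with cytotoxicity read by fluorescence.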 The test is classed as functional. Particulars: Homo sapiens. A general note: The colour change of resazurin is a common sign of viable cells or microbes.
Test [14] can be described thus: Shn3 3'UTR reporter inhibitors, dose response, cell-based, Clone20 osteoblasts, firefly luciferase, cherry-picked (AID 624132).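 Also: firefly luciferase luminescence from reporter carrying the Shn3 3'UTR in osteoblasts.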 The format is functional.
Test [15] is described as follows: control 3'UTR Renilla luciferase suppression, dose response, counter-screen for Shn3 inhibitor project, cell-based, Clone20-Shn3RL, cherry-picked (AID 624133). The format is functional.
A short description of test [16]: inhibitors of HIV Env-driven cell fusion, dose response, cherry-pick (AID 652057). The test is classed as functional, cell-based.
Test [17] in a line: CEM21 lymphoblast cell cytotoxicity, dose response, cytotoxicity control for viral fusion inhibitor project, CellTiter-Glo luminescence, cherry-picked (AID 652042).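 Also: potency for signal decrease meaning cytotoxicity.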 The test is classed as functional, cell-based. A general note: Cellular ATP, detected with luciferase, serves as a proxy for viable cell number.
Test [18] is described as follows: ZM109 Env clade C HIV-1 fusion inhibitors, dose response, HeLa effector, CEM target cells, luciferase, cherry-pick (AID 652058). The test is classed as functional, cell-based.
Test [19] in a line: off-target signal loss in HeLa-CEM21 co-culture – HeLa F-luc CTL cells, cherry-picked, counter-screen for HIV-1 Env fusion inhibitor project, dose response (AID 652040).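 Also: potency for signal decrease marking cytotoxic or nonspecific inhibition.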 The format is functional, cell-based.
Test [20] is described as follows: inhibitors of clade B AD8 Env fusion, dose response, cell-based, cherry-pick (AID 652062).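 Also: luciferase signal from cell-cell fusion driven by HIV-1 clade B AD8 Env; potency is for inhibitors of fusion seen as a drop in luminescence.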 The test is classed as functional.
The target in test [21] is COUP transcription factor 2 (Homo sapiens, UniProt P24468). In words: Luminescence-based cell-based high throughput dose response assay to identify inhibitors of COUP-TFII (NR2F2). The test is classed as functional.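 Also: HEK293 cells transiently cotransfected with COUP-TFII expression vector and reporter; luciferase reporter luminescence driven by COUP-TFII from the pX2-168 reporter plasmid.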
Chain of COUP transcription factor 2 (P24468 whole entry): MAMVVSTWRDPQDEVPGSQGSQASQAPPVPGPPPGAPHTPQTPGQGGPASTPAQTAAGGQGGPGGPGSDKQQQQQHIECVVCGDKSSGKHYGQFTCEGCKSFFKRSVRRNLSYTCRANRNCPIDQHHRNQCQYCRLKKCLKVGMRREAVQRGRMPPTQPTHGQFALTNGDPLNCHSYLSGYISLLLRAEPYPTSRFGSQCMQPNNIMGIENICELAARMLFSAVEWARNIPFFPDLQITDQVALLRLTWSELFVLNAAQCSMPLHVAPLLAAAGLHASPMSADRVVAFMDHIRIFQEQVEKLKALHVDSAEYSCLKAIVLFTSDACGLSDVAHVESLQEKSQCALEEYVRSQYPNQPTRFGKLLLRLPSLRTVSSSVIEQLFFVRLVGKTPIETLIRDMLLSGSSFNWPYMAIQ
In test [22] the target is T1, NADPH oxidase 1 (Homo sapiens, UniProt Q9Y5S8).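 Also: Cell-based assay with luminescence read-out, IC50 derived from inhibitor dose-response curves; intracellular ROS from endogenous NOX1 in intact HT29 colon cancer cells; potency of inhibitors that lower the ROS luminescence signal.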
T1 sequence (Q9Y5S8 whole entry): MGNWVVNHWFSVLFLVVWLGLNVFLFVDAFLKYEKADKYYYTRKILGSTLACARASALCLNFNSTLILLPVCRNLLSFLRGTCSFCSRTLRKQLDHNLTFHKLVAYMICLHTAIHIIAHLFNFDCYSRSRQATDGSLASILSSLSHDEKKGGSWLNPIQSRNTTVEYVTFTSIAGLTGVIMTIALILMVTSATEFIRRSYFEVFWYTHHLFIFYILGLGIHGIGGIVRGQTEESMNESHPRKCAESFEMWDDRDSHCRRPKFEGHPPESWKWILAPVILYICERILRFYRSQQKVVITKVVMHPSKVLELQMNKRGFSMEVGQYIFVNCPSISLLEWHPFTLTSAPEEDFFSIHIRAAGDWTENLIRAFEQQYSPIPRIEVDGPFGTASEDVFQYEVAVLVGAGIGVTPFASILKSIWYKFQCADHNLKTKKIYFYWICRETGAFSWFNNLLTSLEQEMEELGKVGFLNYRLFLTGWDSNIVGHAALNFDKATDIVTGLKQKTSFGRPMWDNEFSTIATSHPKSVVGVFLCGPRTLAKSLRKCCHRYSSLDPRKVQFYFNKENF
The test is classed as functional, cell-based.

Activity calls are given as the source filed them. Some results are limits rather than exact numbers.

The term EC50 denotes the midpoint of the concentration-response curve. For orientation: IC50 means the concentration needed to halve the response being measured. By AC50 is commonly meant the concentration at which the activity in the assay is half-maximal.

For `O=C1N(c2ccccc2)C[C@@H]2C[C@@H](c3cc4ccccc4o3)N3CCC[C@@]123`, the EC50 in test [1] is 239 nM (inconclusive); in test [2] it was > 120000 nM (not active); in [4] it was > 120000 nM (not active); in test [5] it was 1370 nM (active); in test [7] it was 2350 nM (active); in test [8], 266 nM (inconclusive). Also, the EC50 in [10] was 1600 nM (active); in test [11] it was 318 nM (inconclusive); in test [12] it was 480 nM (active); in test [13] it was 205 nM (active). For the same compound, the IC50 in test [3] is 441 nM (active); in test [6] it was 535 nM (active); in test [9], 189 nM (active); in test [21] it was 737 nM (active). For the same compound, the half-maximal activity concentration (AC50) in test [14] is 536 nM (active); in test [15], 29900 nM (active); in test [16], 1010 nM (active); in test [17] it was 534 nM (active); in [18], 1300 nM (active); in [19], 1260 nM (active). For the same compound, the AC50 in test [20] is 1270 nM (active).
As for `O=C(Nc1ccc(NC(=O)c2ccccc2O)cc1)Nc1ccc(OCc2ccccc2)cc1`, the IC50 in [22] is > 17000 nM (not active).
